Experimental data published in US12410411B2, “Biocatalytic techniques” (HYPHA DISCOVERY LIMITED, priority 2019, dated 2025).

Experiments:
P450SeuC10 [1] = assay: Whole-cell biotransformation in E. coli expressing P450SeuC10, ferredoxinSeuF08 and ferredoxin reductaseSCF15A (Example 4B); format: cell-based, Streptomyces eurythermus NRRL 2539; settings: for inferred yield of oxidised product (UPLC-MS): product formed from parent substrate dosed at 100 mg/L, E. coli whole cells, 100 μL screening scale; for Overall % conversion to oxidised products: SeuC10, E. coli whole cells, 0.1 mg/ml substrate, 27° C., pH 7.4
Text: Cell pellets were provided as in Example 2. […] Reactions were stopped and analysed as in Example 4.

P450SeuC10 [2] = assay: Oxidase activity/spectrum testing with lyophilised material containing P450SeuC10, ferredoxinSeuF08 and ferredoxin reductaseSCF15A (Example 4A); format: biochemical, Streptomyces eurythermus NRRL 2539; settings: for inferred yield of oxidised product (UPLC-MS): product formed from parent substrate dosed at 100 mg/L, lyophilised material, 100 μL screening scale; for Overall % conversion to oxidised products: SeuC10, lyophilised material, 0.1 mg/ml substrate, 27° C., 16-20 hours, pH 8.0, UPLC-MS
Protocol: Suspended cell pellets were provided as described in Example 2, containing recombinant P450, ferredoxin and ferredoxin reductase in 100 mM potassium phosphate buffer pH 8.0, 5 mM MgCl2, 5 mM TCEP, and 1 mM PMSF in a ratio of 3.0 ml of buffer per 1 g of cells. Lysed cells were produced by high pressure disruption using three cycles of 30 kpsi. Lysed material was centrifuged at 38,000×g for 40 minutes (4° C.) and the supernatant was sterilized by passing through a 0.2 micron filter to provide the cell-free enzyme preparation containing recombinant P450, ferredoxin and ferredoxin reductase.
(§1) Lyophilised material of recombinant P450, ferredoxin and ferredoxin reductase proteins was made as described in Example 3 and reconstituted in high purity water to the original volume. Biocatalysis was performed shaking at 27° C. in the following conditions: 100 mM potassium phosphate pH 8.0, 5 mM MgCl2 (both present in the reconstituted enzyme preparation) and 0.1 mg/ml substrate compound such as carbamazepine, bosentan, diclofenac, meloxicam, tivantinib or ambroxide.
(§2) Concentrations of P450, ferredoxin and ferredoxin reductase were as extracted (Example 3). Reactions were initiated by addition of 10× stock of cofactor mixture (50 mM G6P, 10 mM NADP, 10 UN/ml G6PDH) to provide a final volume of e.g., 10 μL to 90 μL for 100 μL total reaction volumes. After 16-20 hours, reactions were extracted with an equal volume of acetonitrile, centrifuged to remove precipitated proteins and conversion assessed by UPLC-MS analysis.
UPLC data were obtained as follows:
Column: Acquity UPLC BEH Shield RP18 1.7 μm 2.1 mm i.d. 50 mm length
Solvents: H2O, B: Acetonitrile, both with 0.1% Formic acid
Detector: Waters Acquity UPLC PDA (UV-Vis detection) and Waters Acquity UPLC QDA (MS)

P450AluC09 [3] = assay: Substrate testing with lyophilised material containing P450AluC09 (Example 5, method of Example 4A); format: biochemical, Amycolatopsis lurida NRRL 2430; settings: AluC09, lyophilised material, 0.1 mg/ml substrate
Protocol: as §1, §2
(§3) Other cytochrome P450 enzymes were expressed as described above, and their activities tested against the same substrates as P450SeuC10 using the methods described in Example 4. The other P450s tested were: P450AluC09 from Amycolatopsis lurida NRRL 2430 (SEQ ID NO: 13, see WO 2018/091885); SriC12 from Streptomyces rimosus NRRL 2234 (SEQ ID NO: 14, see WO 2020/109776); SriC20 from Streptomyces rimosus NRRL 2234 (SEQ ID NO: 15, see WO 2020/109776); SriC22 from Streptomyces rimosus NRRL 2234 (SEQ ID NO: 16, see WO 2020/109776); and CYP107L from Streptomyces platensis DSM 40041 (SEQ ID NO: 17, see Worsch et al., Biotechnology and Bioengineering 115: 2156-2166, 2018).

SriC12 = assay: Substrate testing with lyophilised material containing SriC12 (Example 5, method of Example 4A); format: biochemical, Streptomyces rimosus NRRL 2234; settings: 0.1 mg/ml substrate
Protocol: as §1, §2, §3

SriC20 = assay: Substrate testing with lyophilised material containing SriC20 (Example 5, method of Example 4A); format: biochemical, Streptomyces rimosus NRRL 2234; settings: 0.1 mg/ml substrate
Protocol: as §1, §2, §3

SriC22 = assay: Substrate testing with lyophilised material containing SriC22 (Example 5, method of Example 4A); format: biochemical, Streptomyces rimosus NRRL 2234; settings: 0.1 mg/ml substrate
Protocol: as §1, §2, §3

P450AluC09 [4] = assay: Substrate testing with whole cells containing P450AluC09 (Example 5, method of Example 4B); format: cell-based, Amycolatopsis lurida NRRL 2430; settings: AluC09, whole cells, 0.1 mg/ml substrate
Protocol: Cell pellets were provided as in Example 2. The cell pellets were defrosted, washed with 0.85% NaCl buffer and centrifuged at 4,000 RCF, 30 minutes at 4° C. The supernatant was discarded and the pellet was flash frozen in liquid nitrogen. The pellet was allowed to defrost again and resuspended in 40 mL of buffer containing 50 mM potassium phosphate, pH 7.4, 5 mM MgCl2 and 100 mM glucose. Biocatalysis was performed shaking at 27° C. with 0.1 mg/ml substrate compound such as carbamazepine, bosentan, diclofenac, meloxicam, tivantinib, ambroxide or others as shown in Table 2. Reactions were stopped and analysed as in Example 4.
as §3

| SMILES | Overall % conversion to oxidised products (P450SeuC10 [2]) [%] | Overall % conversion to oxidised products (P450AluC09 [3]) [%] | Overall % conversion to oxidised products (SriC12) [%] | Overall % conversion to oxidised products (SriC20) [%] | Overall % conversion to oxidised products (SriC22) [%] | Overall % conversion to oxidised products (P450SeuC10 [1]) [%] | Overall % conversion to oxidised products (P450AluC09 [4]) [%] | further results |
| --- | --- | --- | --- | --- | --- | --- | --- | --- |
| O=C(O)Cc1ccccc1Nc1c(Cl)cc(O)cc1Cl [4′-hydroxydiclofenac] | – | – | – | – | – | – | – | inferred yield of oxidised product (UPLC-MS) (P450SeuC10 [1]): 73.4% |
| O=C(O)Cc1cc(O)ccc1Nc1c(Cl)cccc1Cl [5-hydroxydiclofenac] | – | – | – | – | – | – | – | inferred yield of oxidised product (UPLC-MS) (P450SeuC10 [1]): 19.4% |
| CN1C(C(=O)Nc2ncc(C(=O)O)s2)=C(O)c2ccccc2S1(=O)=O [5′-carboxylmeloxicam] | – | – | – | – | – | – | – | inferred yield of oxidised product (UPLC-MS) (P450SeuC10 [2]): 5.3% |
| CN1C(C(=O)Nc2ncc(CO)s2)=C(O)c2ccccc2S1(=O)=O [5′-hydroxymethylmeloxicam] | – | – | – | – | – | – | – | inferred yield of oxidised product (UPLC-MS) (P450SeuC10 [2]): 28.4% |
| CC1(C)CCC[C@]2(C)[C@H]3CCO[C@]3(C)CC[C@@H]12 [Ambroxide] | 72.8 | 0 | 0 | 0 | 0 | – | – | – |
| Cc1ccc(-n2nc(C(C)(C)C)cc2NC(=O)Nc2ccc(OCCN3CCOCC3)c3ccccc23)cc1 [BIRB796] | – | – | – | – | – | 19.3 | 5.2 | – |
| COc1ccccc1Oc1c(NS(=O)(=O)c2ccc(C(C)(C)C)cc2)nc(-c2ncccn2)nc1OCCO [Bosentan] | – | – | – | – | – | 87.1 | 100 | – |
| CC(C)(C)[C@H]1CC[C@H](CC2=C(O)C(=O)c3ccccc3C2=O)CC1 [Buparvaquone] | – | – | – | – | – | 23.4 | 48.8 | – |
| NC(=O)N1c2ccccc2C=Cc2ccccc21 [Carbamazepine] | 49.2 | 0 | 3.2 | 0 | 0 | – | – | – |
| O=C(O)Cc1ccccc1Nc1c(Cl)cccc1Cl [Diclofenac] | 98.3 | 89.9 | 33.9 | 0 | 0.9 | – | – | – |
| C/C(=C\c1csc(C)n1)[C@@H]1C[C@@H]2O[C@]2(C)CCC[C@H](C)[C@H](O)[C@@H](C)C(=O)C(C)(C)[C@@H](O)CC(=O)O1 [Epothilone B] | 35.1 | 46 | 2 | 0 | 0 | – | – | – |
| CC(C)(C)c1ccc(S(=O)(=O)Nc2nc(-c3ncccn3)nc(OCCO)c2Oc2ccccc2O)cc1 [O-desmethylbosentan] | – | – | – | – | – | – | – | inferred yield of oxidised product (UPLC-MS) (P450SeuC10 [1]): 3.4% |
| CCCCCCCCCCCCCCCC(=O)O [Palmitic acid] | 70.2 | 28.5 | 35.5 | 0 | 0 | – | – | – |
| CCC[C@H](N[C@@H](C)C(=O)N1[C@H](C(=O)O)C[C@@H]2CCCC[C@@H]21)C(=O)OCC [Perindopril] | – | – | – | – | – | 14.4 | 0 | – |
| CC(C)c1nc(CN(C)C(=O)N[C@H](C(=O)N[C@@H](Cc2ccccc2)C[C@H](O)[C@H](Cc2ccccc2)NC(=O)OCc2cncs2)C(C)C)cs1 [Ritonavir] | – | – | – | – | – | 21.6 | 86.3 | – |
| N#CC[C@H](C1CCCC1)n1cc(-c2ncnc3[nH]ccc23)cn1 [Ruxolitinib] | – | – | – | – | – | 38.6 | 34.3 | – |
| CCCCNC(=O)NS(=O)(=O)c1ccc(C)cc1 [Tolbutamide] | 21 | 0 | 34 | 0 | 0 | – | – | – |
| Fc1ccc(C(OCCN2CCN(CCCc3ccccc3)CC2)c2ccc(F)cc2)cc1 [Vanoxerine] | – | – | – | – | – | 26.5 | 0 | – |
| NC(=O)N1c2ccccc2C2OC2c2ccccc21 (stereo not drawn) [carbamazepine-10,11-epoxide] | – | – | – | – | – | – | – | inferred yield of oxidised product (UPLC-MS) (P450SeuC10 [2]): 49% |
| COc1ccccc1Oc1c(NS(=O)(=O)c2ccc(C(C)(C)CO)cc2)nc(-c2ncccn2)nc1OCCO [hydroxy-bosentan] | – | – | – | – | – | – | – | inferred yield of oxidised product (UPLC-MS) (P450SeuC10 [1]): 81% |
